How the values were obtained:
[1] = test system: 147 bp Widom 601 DNA (DNA147); test: EMSA; type: binding; details: for DNA binding of protein or peptide itself: 0.25 pmol/lane DNA147, 25 mM Tris-HCl pH 7.5, 150 mM NaCl, peptides without HP1α
Description: (§1) Human full-length HP1α and HP1αCSD (aa 109–185 of HP1α) were cloned into a pGEX4T-1 expression vector and expressed in E. coli BL21 Rosetta (DE3) pLysS cells grown in Luria Broth or M9 minimal media supplemented with ^15NH4Cl (Sigma-Aldrich). Following induction with 0.5 mM isopropyl β-D-1-thiogalactopyranoside (IPTG) for 20 h at 16 °C, cells were harvested by centrifugation and lysed by sonication. GST-tag fusion proteins were purified on glutathione agarose 4B beads (Thermo Fisher Sci) in 50 mM Tris-HCl (pH 7.5) buffer, supplemented with 500 mM NaCl and 5 mM β-mercaptoethanol. The GST tag was cleaved with TEV (Tobacco Etch Virus) protease overnight at 4 °C. Proteins were further purified by size exclusion chromatography (SEC) and concentrated in Millipore concentrators. Mutants were generated by site-directed mutagenesis using the Stratagene QuikChange mutagenesis protocol and were purified as wild-type proteins.
The protein was expressed in E. coli BL21(DE3) RIL competent cells in Luria Broth, induced with 0.5 mM IPTG and grown for 20 h at 16 °C. The cells were harvested by centrifugation and lysed by sonication. […] The protein was eluted in 50 mM Tris-HCl (pH 7.5) buffer supplemented with 500 mM NaCl, 500 mM imidazole and 5 mM DTT. The protein was further purified by size exclusion chromatography using a HiLoad16/600 Superdex 75 column (Cytiva) and buffer containing 50 mM Tris-HCl (pH 7.5), 500 mM NaCl and 5 mM DTT. The eluted protein fractions were analyzed by SDS-PAGE. The fractions were pooled, concentrated and exchanged with buffer containing […] pH 7.5, 150 mM NaCl and 2.5 mM DTT. The His-SUMO tag was cleaved overnight at 4 °C with Ulp1 enzyme and the tag was removed using Ni-NTA beads. The purified KAP1Hbox’ was concentrated in Millipore concentrators.
The buffer containing 25 mM Tris-HCl pH 7.5, 150 mM NaCl and 2.5 mM DTT was used to make up the final reaction volume of 10 µL. The samples were incubated for 1 h on ice and then loaded on a 8% native PAGE gel and run for 2 h at 80 V in 0.5× Tris-borate-EDTA (TBE) on ice. The gels were stained with SYBR Gold (Thermo Fisher Sci) and visualized by Blue LED (UltraThin LED Illuminator-GelCompany).
Tryptophan fluorescence data are presented as average of three independent measurements ±SD. […] EMSA experiments in Fig. 4 and Supplementary Figs. 6 and 7 were performed at least twice.

W174A mutant of HP1αCSD = test: 1H,15N HSQC NMR titration of W174A HP1αCSD with KAP1Hbox; type: binding, human; details: 15N-labeled W174A HP1αCSD, 20 mM Tris pH 6.8, 150 mM NaCl, 2 mM DTT, 298 K
Description: as §1
(§2) NMR data were processed and analyzed with NMRPipe[54] and NMRDraw as described. Normalized chemical shift perturbations shown in Fig. 3b were calculated using the equation:2 Δδ=ΔδH^2+ΔδN/5^2 where Δδ is the change in chemical shift in parts per million (ppm).

L139E/L150E FL HP1α = test: mass photometry with KAP1Hbox (Fig. 5j); parameters: species or system human; details: 2:1 molar ratio HP1α:KAP1Hbox
Description: as §1
(§3) Mass photometry (MP) assays shown in Fig. 5c, j, were performed on a Refeyn Two^MP mass photometer (Refeyn Ltd, Oxford, UK) to determine oligomeric states of FL and L139E/L150E HP1α. Each sample was loaded into the sample wells of the silicon cassettes assembled onto MassGlass UC coverslips (Refeyn, Ltd.). Samples for measurements were prepared by rapid in-drop dilution and measurements were performed at room temperature in buffer (50 mM Tris pH 7.5, 150 mM NaCl, 5 mM DTT). […]

FL HP1α = test: mass photometry with KAP1Hbox (Fig. 5j); parameters: species or system human; details: 2:1 molar ratio HP1α:KAP1Hbox
Description: as §1, §3

I165E mutant of HP1αCSD = test: 1H,15N HSQC NMR titration of I165E HP1αCSD with KAP1Hbox; type: binding, human; details: 15N-labeled I165E HP1αCSD, 20 mM Tris pH 6.8, 150 mM NaCl, 2 mM DTT, 298 K
Description: as §1, §2

L139E/L150E HP1αCSD = test: 1H,15N HSQC NMR titration of L139E/L150E HP1αCSD with KAP1Hbox; type: binding, human; details: 15N-labeled L139E/L150E HP1αCSD, 20 mM Tris pH 6.8, 150 mM NaCl, 2 mM DTT, 298 K
Description: as §1, §2

HP1αCSD = target: T1, HP1αCSD (Homo sapiens, UniProt P45973); test: 1H,15N HSQC NMR titration of 15N-labeled HP1αCSD with KAP1Hbox; type: binding; details: 0.1–0.2 mM 15N-labeled protein, 20 mM Tris pH 6.8, 150 mM NaCl, 2 mM DTT, 10% D2O, 298 K
T1 construct: HP1αCSD (aa 109–185 of HP1α); GST (N, cleaved yes); made in house; host or cells: E. coli BL21 Rosetta (DE3) pLysS
Description: NMR data were processed and analyzed with NMRPipe[54] and NMRDraw as described[55].

HP1αCSD’ = test: NMR chemical shift perturbation of 15N-labeled HP1αCSD’; type: binding, human; details: 50 μM 15N-labeled HP1αCSD’ with 1 mM unlabeled HP1αCSD’ or 900 μM unlabeled HP1αCD; 1H,15N HSQC
Description: NMR experiments for amide chemical shift assignments were collected at 310 K on an Avance Neo Bruker 800 MHz spectrometer equipped with a TXO cryo-probe optimized for ^15N detection. The HP1αCSD’ construct (aa 112–176 of HP1α) and the CD of HP1α (aa 18–75 of HP1α, HP1αCD) were purified as described. Experiments were performed in buffer containing 20 mM HEPES (90% H2O/10% D2O), pH 7.2, 75 mM KCl, 1 mM TCEP, and 0.01% NaN3. Chemical shift assignments were performed on a 400 μM uniformly ^13C/^15N-labeled HP1αCSD’ sample using standard 2D ^1H,^15N HSQC, 3D HNCACB and 3D CBCA(CO)NH experiments[56]–[58]. Data were processed with NMRPipe[54] and analyzed in NMRFAM-SPARKY[59] (Sparky). […]
Fig. 10, ^1H,^15N HSQC spectra were recorded on 50 μM ^15N-labeled HP1αCSD’ samples with and without 1 mM unlabeled HP1αCSD’ or with and without 900 μM unlabeled HP1αCD. The resonance perturbation analysis was performed using the […][60],[61] as follows:3 Δδcombined=∣ΔδH∣+α∣ΔδN∣ The ∆δcombined is the sum of the absolute chemical shift change. ∆δH is the change in the ^1H chemical shift. ∆δN is the change in the ^15N chemical shift. α (0.105) is the scaling factor calculated by using the ratio between the backbone ^1H chemical shift range and ^15N chemical shift range from the ^1H,^15N HSQC spectrum.

[2] = test system: endogenous KAP1 from HCT116 cells; test: pull-down with Strep-tagged HP1α, Western blot; type: binding; details: Strep-tagged full-length HP1α, 3 biological replicates
Description: For all AP experiments, HCT116 cells were seeded in 10 cm plates (~4 million cells per dish) and transfected with Strep- and Flag-tagged plasmids one-day after seeding cells. Two days post-transfection, cells were collected in PBS and lysed with passive lysis buffer (PLB: 50 mM Tris-HCl pH 7.5, 150 mM NaCl, 1 mM DTT, 1.0% NP-40, 1.5 mM MgCl2, 5% v/v glycerol, and 1X complete, Mini EDTA-free, EASYpack Protease Inhibitor [Roche, Cat# 4693159001]) by resuspending cells in PLB, vortexing briefly, nutating for 15 min at 4 °C, and centrifuging the lysate (10,000 × g, 10 min, 4 °C). Strep-Tactin superflow resin (IBA Life Sciences, Cat# 2-1208-010), was equilibrated by centrifuging beads (2000 RPM, 2 min, 4 °C), removing storage buffer, and washing three times with PLB with nutation for 5 min at 4 °C. Beads were volumed back to their original volume, and 40 µL beads were used per AP and bound for 2 h. Beads were then washed with AP Wash Buffer (50 mM Tris-HCl pH 7.5, 250 mM NaCl, 1 mM DTT, 0.2% NP-40, 1.5 mM MgCl2, and 5% v/v glycerol), and eluted with Strep-tag Elution Buffer containing D-Desthiobiotin (IBA Life Sciences, Cat# 2-1000-025).
All western blots were run on 10-12% SDS-PAGE gels and transferred on nitrocellulose membranes (Bio-Rad, Cat# 1620115) using the Bio-Rad Trans-Blot Turbo Transfer System, blocked for 1 h in 5% Milk (or BSA) with Tris-buffered saline-Tween-20 (TBST), probed with primary antibody in 5% Milk (or BSA) with TBST. Blots were exposed using either Clarity Western ECL (Bio-Rad, Cat# 1705060) or utilizing the starbright secondary channel. KAP1 and CBX5/HP1a mutants for Western blot assays were generated using QuikChange II XL Site-Directed Mutagenesis kit (Agilent, Cat# 200522) per manufacturer’s instructions. PCR amplified DNAs were transformed into E. coli BME treated XL-10 Gold provided in the kit and positive clones validated by Sanger Sequencing. […]
Tryptophan fluorescence data are presented as average of three independent measurements ±SD. […]

I165E HP1αCSD = test: NMR titration of 15N-labeled I165E HP1αCSD with unlabeled HP1αCSD; type: binding, human
Description: as §1, §2

T1 sequence (P45973 109-185): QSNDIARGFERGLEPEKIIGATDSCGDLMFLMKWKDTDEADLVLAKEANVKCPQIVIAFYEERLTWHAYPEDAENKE

## CC(C)C[C@H](NC(=O)[C@H](CCCNC(=N)N)NC(=O)[C@H](CCC(=O)O)NC(=O)[C@H](CC(C)C)NC(=O)[C@H](CO)NC(=O)[C@@H](NC(=O)[C@H](CCCNC(=N)N)NC(=O)[C@@H]1CCCN1C(=O)[C@@H](NC(=O)[C@H](CCCCN)NC(=O)[C@@H](N)CCCNC(=N)N)C(C)C)C(C)C)C(=O)O [KAP1Hbox]
[1]; 2.5 mM DTT, 1 h on ice
  DNA binding of protein or peptide itself: did not appreciably bind DNA
[1]; FL HP1α, tenfold molar excess of peptide, 25 mM Tris-HCl pH 7.5, 150 mM NaCl, 2.5 mM DTT, 1 h on ice, 8% native PAGE
  effect of peptide on binding of HP1α to DNA147: augmented binding of HP1α to DNA
W174A mutant of HP1αCSD
  binding by CSPs in HSQC: no CSP were observed
L139E/L150E FL HP1α
  KAP1Hbox-promoted oligomerization of L139E/L150E FL HP1α: markedly decreased
FL HP1α
  effect on oligomerization of WT FL HP1α: further increased oligomerization of WT FL HP1α
I165E mutant of HP1αCSD
  binding by CSPs in HSQC: disrupted
L139E/L150E HP1αCSD
  binding by CSPs in HSQC: does not disrupt the CSD-KAP1Hbox complex formation

## V488E mutant of KAP1Hbox: V488E mutant of KAP1Hbox peptide (RKVPRESLERL)
HP1αCSD
  binding by CSPs in HSQC: no CSP were observed

## CD domain: CD of HP1α (aa 18–75 of HP1α)
HP1αCSD’
  resonance perturbations in HP1αCSD’: does not induce such changes

## W174A HP1α: W174A mutant of full-length HP1α, Strep-tagged
[2]
  pull-down of endogenous KAP1: not

## HP1αCSD: aa 109–185 of HP1α, chromoshadow domain
[1]; isolated HP1αCSD, with and without KAP1Hbox (1:10)
  shift of DNA band by HP1αCSD in presence or absence of KAP1Hbox: unable to shift the DNA band
I165E HP1αCSD
  CSPs in I165E HP1αCSD: led to CSPs
HP1αCSD’
  resonance perturbations in HP1αCSD’: resonance perturbations observed

## I165E HP1α: I165E mutant of full-length HP1α (dimerization interface), Strep-tagged
[2]
  pull-down of endogenous KAP1: not

## FL HP1α: Human full-length HP1α
[1]; 2.5 mM DTT, 1 h on ice
  DNA binding of protein or peptide itself: forms a complex with DNA147
[2]
  pull-down of endogenous KAP1: immunoprecipitated
